From patent US7056947B2, “Aza-peptide epoxides” (Georgia Tech Research Corp., priority 2002, dated 2006) come the findings set out here.

A value given as a limit tells only on which side of the number the result lay.

Format in all cases: biochemical
The target of one experiment is T1, caspase-1 (Homo sapiens, UniProt P29466, D381E).
T1 construct: His tag (N); made in house; host or cells: E. coli
T1 sequence (P29466 120-297 limits assumed): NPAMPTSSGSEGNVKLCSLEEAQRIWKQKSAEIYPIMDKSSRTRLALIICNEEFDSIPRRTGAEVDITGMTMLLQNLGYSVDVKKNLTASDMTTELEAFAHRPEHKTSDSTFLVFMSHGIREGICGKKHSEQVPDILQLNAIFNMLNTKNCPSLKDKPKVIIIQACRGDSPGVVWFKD
T1 sequence (P29466 317-404 D381E limits assumed): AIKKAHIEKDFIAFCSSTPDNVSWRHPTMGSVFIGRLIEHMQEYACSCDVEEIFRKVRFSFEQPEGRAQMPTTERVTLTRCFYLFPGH
Description: Caspase-1 progress curve assay. Conditions: D381E variant, substrate Ac-YVAD-AMC, 30° C. Summed up:
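Autolysis-resistant D381E caspase-1 (E. coli, N-His tag), about 2 nM, added with 15 μM Ac-YVAD-AMC in HEPES/glycerol/EDTA buffer with 5 mM DTT to prewarmed compound at 30 °C. AMC fluorescence followed 900 s, triplicate curves fit to irreversible inactivation; kon (M^−1s^−1) from regression slope.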

A further experiment deals with T2, papain (Carica papaya, UniProt P00784).
T2 sequence (P00784 134-345): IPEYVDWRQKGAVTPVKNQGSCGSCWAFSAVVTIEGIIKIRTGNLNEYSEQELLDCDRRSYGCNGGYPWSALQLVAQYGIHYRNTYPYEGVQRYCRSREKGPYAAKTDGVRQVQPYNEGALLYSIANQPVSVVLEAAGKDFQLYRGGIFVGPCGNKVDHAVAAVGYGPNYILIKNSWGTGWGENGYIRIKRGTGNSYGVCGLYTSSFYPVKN
Put plainly: Inhibition of papain, incubation method. As to conditions: second-order rate constant, NI = no inhibition; for kinact/KI: pH 7.5, read-out: kobs/[I] papain. As to the method:
(§1) The release of 7-amino-4-methylcoumarin was monitored (λex=360 nm, λem=465 nm) using a Tecan Spectra Fluor microplate reader. Pseudo first-order inactivation rate constants were obtained from plots of In vt/vo versus time.
The incubation method was also used for papain. The inhibition incubation buffer for papain was 50 mM Hepes buffer at pH 7.5, containing 2.5 mM DTT and 2.5 mM EDTA. The assay used the substrate Z-Phe-Arg-pNA (53.7 μM) in the same buffer. The approximate concentration of papain added to the incubation buffer was 0.29 mg/mL. The release of p-nitroanilide was monitored at 405 nm with a Molecular Devices Thermomax microplate reader.

The next experiment concerns the target cathepsin B (Homo sapiens, UniProt P07858). Description: Inhibition of cathepsin B, incubation method. As to conditions: second-order rate constant, NI = no inhibition; for kinact/KI: pH 6, read-out: kobs/[I] cathepsin B.
From the text: as §1

The target of the next experiment is T3, caspase-3 (Homo sapiens, UniProt P42574).
T3 construct: made in house; host or cells: E. coli
T3 sequence (P42574 29-175 limits assumed): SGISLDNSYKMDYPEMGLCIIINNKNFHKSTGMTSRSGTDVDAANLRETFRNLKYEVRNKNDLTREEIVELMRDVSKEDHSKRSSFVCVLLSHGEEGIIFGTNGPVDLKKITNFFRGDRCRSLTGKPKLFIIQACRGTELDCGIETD
T3 sequence (P42574 176-277 limits assumed): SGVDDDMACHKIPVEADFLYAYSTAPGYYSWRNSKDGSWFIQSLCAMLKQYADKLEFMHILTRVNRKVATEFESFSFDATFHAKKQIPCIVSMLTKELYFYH
Description: Caspase-3 progress curve assay. Conditions: substrate Z-DEVD-AFC; NI = no inhibition. Summed up:
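E. coli-expressed caspases, pre-activated 10 min at 37° C with 10 mM DTT, were added to 100 μM Z-DEVD-AFC plus inhibitor in 50 mM Hepes, 100 mM NaCl, 0.1% CHAPS, 10% sucrose, 10 mM DTT, pH 7.4. AFC fluorescence (ex 400/em 505 nm) was followed; inhibition rates and equilibria came from progress curves.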

In another experiment the test system is calpain. Put plainly: Inhibition of calpain. As to conditions: second-order rate constant; NI = no inhibition.

For the compound `CC(C)[C@H](NC(=O)CCc1ccccc1)C(=O)N[C@@H](C)C(=O)NN(CC(=O)O)C(=O)[C@@H]1O[C@H]1C(=O)OCc1ccccc1` (relative stereo) [23d (trans), trans-3-(N^2-(N-3-Phenylpropanoylvalylalanyl)-N^1-carboxylmethylhydrazinocarbonyl)oxirane-2-carboxylic Acid Benzyl Ester], the “k2 caspase-1” value on caspase-1 amounted to 18070 ± 2625 M⁻¹ s⁻¹. Besides, the kinact/KI on papain and at cathepsin B was < 10 M⁻¹ s⁻¹ in each case. Moreover, the “k2 caspase-3” value at caspase-3 was 680 ± 140 M⁻¹ s⁻¹.

Turning to `CCOC(=O)[C@@H]1O[C@H]1C(=O)N(CCc1ccccc1)NC(=O)[C@H](CC(C)C)NC(C)=O` (relative stereo) [Ac-Leu-AHph-trans-EP-COOEt, trans-3-(N^2-(N-Acetylleucyl)-N^1-phenylethylhydrazinocarbonyl)oxirane-2-carboxylic Acid Ethyl Ester], the “kobs/[I] calpain” value in the experiment on calpain came to 0.84 M⁻¹ s⁻¹. Besides, the kinact/KI at papain came to 1.9 M⁻¹ s⁻¹; at cathepsin B, 0.59 M⁻¹ s⁻¹.

As for `CCOC(=O)[C@@H]1O[C@H]1C(=O)N(CC(C)C)NC(=O)[C@H](CC(C)C)NC(C)=O` (relative stereo) [Ac-Leu-ALeu-trans-EP-COOEt, trans-3-(N^2-(N-Acetylleucyl)-N^1-isobutylhydrazinocarbonyl)oxirane-2-carboxylic Acid Ethyl Ester], the “kobs/[I] calpain” value in the experiment with calpain is 1.48 M⁻¹ s⁻¹. Further, the kinact/KI at papain worked out at 2.09 M⁻¹ s⁻¹; at cathepsin B, 8 M⁻¹ s⁻¹.

With `CCOC(=O)[C@@H]1O[C@H]1C(=O)N(CCc1ccccc1)NC(=O)OCc1ccccc1` (relative stereo) [Cbz-AHph-trans-EP-COOEt, trans-3-(N^2-(N-Benzyloxycarbonyl)-N^1-phenylethylhydrazinocarbonyl)oxirane-2-carboxylic Acid Ethyl Ester], in the experiment on calpain, the “kobs/[I] calpain” value was 2.44 M⁻¹ s⁻¹. Besides, the “kobs/[I] papain” value on papain is 18.8 M⁻¹ s⁻¹. The “kobs/[I] cathepsin B” value on cathepsin B was found to be 8.91 M⁻¹ s⁻¹.

With `CCOC(=O)[C@@H]1O[C@H]1C(=O)N(CC(C)C)NC(=O)OCc1ccccc1` (relative stereo) [Cbz-ALeu-trans-EP-COOEt, trans-3-(N^2-(N-Benzyloxycarbonyl)-N^1-isobutylhydrazinocarbonyl)oxirane-2-carboxylic Acid Ethyl Ester], in the experiment on calpain, the “kobs/[I] calpain” value was found to be 1.75 M⁻¹ s⁻¹. Moreover, the “kobs/[I] papain” value at papain is 16.1 M⁻¹ s⁻¹. The “kobs/[I] cathepsin B” value at cathepsin B came to 4.43 M⁻¹ s⁻¹.

For `CCOC(=O)[C@@H]1O[C@H]1C(=O)N(CC)NC(=O)C(CC(C)C)NC(=O)OCc1ccccc1` (relative stereo) [Cbz-Leu-AAbu-trans-EP-COOEt, trans-3-(N^2-(N-Benzyloxycarbonyleucyl)-N^1-ethylhydrazinocarbonyl)oxirane-2-carboxylic Acid Ethyl Ester], the “kobs/[I] calpain” value in the experiment with calpain came out at 1.98 M⁻¹ s⁻¹. In addition, the “kobs/[I] papain” value on papain stood at 4.94 M⁻¹ s⁻¹.

For `CCN(NC(=O)[C@H](CC(C)C)NC(=O)OCc1ccccc1)C(=O)[C@@H]1O[C@H]1C(=O)O` (relative stereo) [Cbz-Leu-AAbu-trans-EP-COOH, trans-3-(N-(N-Benzyloxycarbonyleucyl)-N^1-ethylhydrazinocarbonyl)oxirane-2-carboxylic Acid], in the experiment on calpain, the “kobs/[I] calpain” value turned out to be 0.57 M⁻¹ s⁻¹. The “kobs/[I] papain” value on papain came out at 1.47 M⁻¹ s⁻¹.

Take `CCOC(=O)[C@@H]1O[C@@H]1C(=O)N(CCc1ccccc1)NC(=O)[C@H](CC(C)C)NC(=O)OCc1ccccc1` (relative stereo) [Cbz-Leu-AHph-cis-EP-COOEt, cis-3-(N-(N-Benzyloxycarbonyleucyl)-N^1-phenylethylhydrazinocarbonyl)oxirane-2-carboxylic Acid Ethyl Ester]: the “kobs/[I] calpain” value with calpain was determined as 1.09 M⁻¹ s⁻¹. The “kobs/[I] papain” value on papain was 1.03 M⁻¹ s⁻¹.

With `CCOC(=O)[C@@H]1O[C@@H]1C(=O)N(CC(C)C)NC(=O)C(CC(C)C)NC(=O)OCc1ccccc1` (relative stereo) [Cbz-Leu-ALeu-cis-EP-COOEt, cis-3-(N^2-(N-Benzyloxycarbonyleucyl)-N^1-isobutylhydrazinocarbonyl)oxirane-2-carboxylic Acid Ethyl Ester], the “kobs/[I] calpain” value in the experiment on calpain was 1.88 M⁻¹ s⁻¹. Further, the “kobs/[I] papain” value on papain turned out to be 0.38 M⁻¹ s⁻¹. The “kobs/[I] cathepsin B” value on cathepsin B worked out at 6.27 M⁻¹ s⁻¹.

`CCOC(=O)[C@@H]1O[C@H]1C(=O)N(CC(C)C)NC(=O)[C@H](CC(C)C)NC(=O)OCc1ccccc1` (relative stereo) [Cbz-Leu-ALeu-trans-EP-COOEt, trans-3-(N^2-(N-Benzyloxycarbonyleucyl)-N^1-isobutylhydrazinocarbonyl)oxirane-2-carboxylic Acid Ethyl Ester]: the “kobs/[I] calpain” value in the experiment with calpain was determined as 3.09 M⁻¹ s⁻¹. For the same compound, the “kobs/[I] papain” value on papain turned out to be 6.37 M⁻¹ s⁻¹. For the same compound, the “kobs/[I] cathepsin B” value on cathepsin B amounted to 23.32 M⁻¹ s⁻¹.

In the case of `CCOC(=O)[C@@H]1O[C@H]1C(=O)N(CC(C)C)NC(=O)[C@H](CC(C)C)NC(=O)[C@H](CC(C)C)NC(=O)OCc1ccccc1` (relative stereo) [Cbz-Leu-Leu-ALeu-trans-EP-COOEt, trans-3-(N^2-(N-Benzyloxycarbonylleucylleucyl)-N^1-isobutylhydrazinocarbonyl)oxirane-2-carboxylic Acid Ethyl Ester], the “kobs/[I] calpain” value in the experiment with calpain came to 2.65 M⁻¹ s⁻¹. The kinact/KI at papain came out at 34.8 M⁻¹ s⁻¹.

Regarding `CCOC(=O)[C@@H]1O[C@H]1C(=O)N(CC(C)C)NC(=O)[C@H](Cc1ccccc1)NC(=O)OCc1ccccc1` (relative stereo) [Cbz-Phe-ALeu-trans-EP-COOEt, trans-3-(N^2-(N-3-Benzyloxyphenylalanyl)-N^1-isobutylhydrazinocarbonyl)oxirane-2-carboxylic Acid Ethyl Ester], the “kobs/[I] papain” value at papain was 0.91 M⁻¹ s⁻¹. Further, the “kobs/[I] cathepsin B” value at cathepsin B was 3.61 M⁻¹ s⁻¹.

As to `CCOC(=O)[C@@H]1O[C@H]1C(=O)N(CC(C)C)NC(=O)C(Cc1ccc2ccccc2c1)NC(=O)CCC(=O)O` (relative stereo) [Suc-Np2-ALeu-trans-EP-COOEt, trans-3-(N^2-(N-Succinyl-2-naphthylalanyl)-N^1-isobutylhydrazinocarbonyl)oxirane-2-carboxylic Acid Ethyl Ester], the “kobs/[I] papain” value at papain was 1.39 M⁻¹ s⁻¹. Moreover, the “kobs/[I] cathepsin B” value at cathepsin B amounted to 0.8 M⁻¹ s⁻¹.

`CCOC(=O)[C@@H]1O[C@H]1C(=O)N(CCc1ccccc1)NC(=O)[C@H](CC(C)C)NC(=O)OCc1ccccc1` [Cbz-Leu-AHph-(2R, 3R)-EP-COOEt, (2R,3R)-3-(N^2-(N-Benzyloxycarbonyleucyl)-N^1-phenylethylhydrazinocarbonyl)oxirane-2-carboxylic Acid Ethyl Ester]: the “kobs/[I] calpain” value with calpain was found to be 2.12 M⁻¹ s⁻¹. Also, the “kobs/[I] papain” value at papain came out at 2.16 M⁻¹ s⁻¹.

In the case of `CC(C)C[C@H](NC(=O)OCc1ccccc1)C(=O)NN(CCc1ccccc1)C(=O)[C@H]1O[C@@H]1C(=O)O` [Cbz-Leu-AHph-(2S, 3S)-EP-COOH, (2S,3S)-3-(N^2-(N-Benzyloxycarbonyleucyl)-N^1-phenylethylhydrazinocarbonyl)oxirane-2-carboxylic Acid], the “kobs/[I] calpain” value in the experiment on calpain came out at 2.12 M⁻¹ s⁻¹.

With `CCOC(=O)[C@@H]1O[C@H]1C(=O)N(CC(C)C)NC(=O)C(CC(C)C)NC(=O)OCc1ccccc1` (stereo partly drawn) [Cbz-Leu-ALeu-(2R, 3R)-EP-COOEt, (2R,3R)-3-(N^2-(N-Benzyloxycarbonyleucyl)-N^1-isobutylhydrazinocarbonyl)oxirane-2-carboxylic Acid Ethyl Ester], the “kobs/[I] calpain” value with calpain was found to be 1.45 M⁻¹ s⁻¹. Further, the “kobs/[I] papain” value at papain worked out at 6.70 M⁻¹ s⁻¹.
